The structures appear in SMILES notation. “And” between values parts separate entries of the source, which are not always exact repeats. Equal entries are not always repeated.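 Following 48 hours of exposure in 96-well plates, responses at five concentrations were used to interpolate endpoints linearly. The concentration for 50% growth inhibition is given as GI50. TGI: total growth inhibition.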

These results are taken from PubChem BioAssay (NCI).

Test systems include HCC-2998 colon; KM12 colon; MDA-MB-231 breast; NCI-H226 lung; NCI-H522 lung; OVCAR-5 ovarian; PC-3 prostate; SK-MEL-2 melanoma; A498 renal; K-562 leukemia.
Common to all, as to experiment: NCI anticancer screen, dose series, 48 h

Consider `C=C1C(=O)O[C@@H]2C[C@@]3(C)CC(=O)C=C(C)[C@@H]3C[C@H]12`, for which the TGI with HCC-2998 colon was 28.1 µM; in the test on KM12 colon, 37.9 µM; in the test with MDA-MB-231 breast, 34 µM; in the test with NCI-H226 lung, above 100 µM; in the test on NCI-H522 lung, 20.3 µM; in the test on OVCAR-5 ovarian, 32.9 µM. Moreover, the TGI with PC-3 prostate was determined as 36.3 µM; in the test on SK-MEL-2 melanoma, 29.8 µM.

On to `Clc1ccccc1NN(Cc1ccccn1)c1ccccc1Cl`, for which the TGI in the test with A498 renal stood at 34.9 µM; in the test on K-562 leukemia it was 68.7 µM; in the test on KM12 colon it was 32.9 µM; in the test with MDA-MB-231 breast, 57.4 µM; in the test on NCI-H226 lung, 31.6 µM; with NCI-H522 lung, 41.1 µM. Moreover, the TGI in the test with OVCAR-5 ovarian was 45.7 µM; in the test with PC-3 prostate, above 100 µM; in the test with SK-MEL-2 melanoma, 32.6 µM.

Consider `COc1ccc(OC)c(-c2cc(-c3ccccc3)nn2-c2ccc(S(=O)(=O)NC(C)=O)cc2)c1`, for which the GI50 was 3.08 µM with HCC-2998 colon; 3.36 µM with K-562 leukemia; 4.66 µM in the test on KM12 colon; 3.09 µM in the test on MDA-MB-231 breast; 11.7 µM in the test on NCI-H226 lung; 10.4 µM in the test on NCI-H522 lung. Moreover, the GI50 was 16.9 µM with OVCAR-5 ovarian, 6.08 µM in the test with PC-3 prostate and 36.2 µM in the test on SK-MEL-2 melanoma. Besides, the TGI came to 13.8 µM in the test on HCC-2998 colon; 9.76 µM in the test with K-562 leukemia; 39.6 µM with KM12 colon; 14.1 µM in the test with MDA-MB-231 breast; 24.8 µM in the test on NCI-H226 lung; 34.8 µM in the test on NCI-H522 lung. The TGI was 31.3 µM in the test on OVCAR-5 ovarian, 20.6 µM in the test on PC-3 prostate and above 100 µM in the test with SK-MEL-2 melanoma.

As for `COc1ccc2nc(-c3ccccc3)cc(Nc3cccc(/C(C)=N\O)c3)c2c1`, the GI50 in the test with A498 renal is 11.8 µM; with HCC-2998 colon, 46.2 µM; in the test with K-562 leukemia, 4.12 µM; with MDA-MB-231 breast, 2.54 µM; in the test on NCI-H226 lung, 3.18 µM; in the test with NCI-H522 lung it was 73.9 µM. For the same compound, the results for the GI50 in the test on OVCAR-5 ovarian, in the test with PC-3 prostate and in the test on SK-MEL-2 melanoma were 33.7 µM, 4.72 µM and 55.7 µM, respectively. Moreover, the TGI in the test on A498 renal is 37.3 µM; with HCC-2998 colon it was above 100 µM; in the test on K-562 leukemia it was above 100 µM; in the test with MDA-MB-231 breast, 7.62 µM; in the test with NCI-H226 lung, 11.1 µM; with NCI-H522 lung it was above 100 µM. The TGI was above 100 µM in the test with OVCAR-5 ovarian, 26.3 µM in the test with PC-3 prostate and above 100 µM with SK-MEL-2 melanoma.

As for `O=C(O)c1cc[c]([Hg][S]c2ncnc3nc[nH]c23)cc1`, the GI50 is above 35.3 µM in the test with A498 renal; 1.7 µM in the test with K-562 leukemia; 14.3 µM with KM12 colon; 6.59 µM with MDA-MB-231 breast; above 39 µM in the test with NCI-H226 lung; 1.08 µM in the test on NCI-H522 lung. For the same compound, the figures for the GI50 in the test with OVCAR-5 ovarian, with PC-3 prostate and with SK-MEL-2 melanoma were 14.1 µM, 8.37 µM and 4.83 µM, respectively. The TGI is above 87.1 µM with A498 renal; 15.7 µM in the test on K-562 leukemia; above 50.1 µM with KM12 colon; 21 µM in the test with MDA-MB-231 breast; above 68 µM in the test on NCI-H226 lung; 8.24 µM in the test on NCI-H522 lung. For the same compound, the TGI in the test on OVCAR-5 ovarian came out at 29 µM; in the test with PC-3 prostate, 23.5 µM; in the test with SK-MEL-2 melanoma, 19.4 µM.

As to `COc1cc(-c2csc(NC(=O)c3cc(C(F)(F)F)cc(C(F)(F)F)c3)n2)cc(OC)c1OC`, the GI50 was 2.63 µM with A498 renal; 3.2 µM with HCC-2998 colon; 2.75 µM in the test on K-562 leukemia; 2.86 µM with KM12 colon; 2.72 µM in the test with MDA-MB-231 breast; 1.4 µM in the test with NCI-H522 lung. In addition, the GI50 with OVCAR-5 ovarian was 3.94 µM; in the test on PC-3 prostate, 1.73 µM; in the test on SK-MEL-2 melanoma, 1.6 µM. Besides, the TGI is above 100 µM in the test on A498 renal; above 100 µM in the test with HCC-2998 colon; above 100 µM in the test with K-562 leukemia; above 100 µM in the test with KM12 colon; above 100 µM with MDA-MB-231 breast; 5.05 µM in the test on NCI-H522 lung. The TGI was above 100 µM in the test with OVCAR-5 ovarian, 7.35 µM in the test with PC-3 prostate and 4.81 µM in the test on SK-MEL-2 melanoma.

Regarding `COc1cc(/C=C2\CN(C)CC3=C2Nc2nc(SC)[nH]c(=O)c2C3c2cc(OC)c(OC)c(OC)c2)cc(OC)c1OC` (stereo not given), the GI50 is 9.58 µM in the test on A498 renal; 1.91 µM in the test on HCC-2998 colon; 1.7 µM in the test on KM12 colon; 3.14 µM in the test on MDA-MB-231 breast; 6.17 µM in the test on NCI-H226 lung; 2.04 µM in the test with NCI-H522 lung. Also, the GI50 in the test on OVCAR-5 ovarian was 4.83 µM; in the test on PC-3 prostate, 3.63 µM; with SK-MEL-2 melanoma it was 9.92 µM. The TGI stood at 21.5 µM with A498 renal; 3.63 µM in the test with HCC-2998 colon; 3.21 µM with KM12 colon; 13.1 µM with MDA-MB-231 breast; 22.2 µM in the test on NCI-H226 lung; 4.69 µM in the test with NCI-H522 lung. Further, the values for the TGI with OVCAR-5 ovarian, in the test with PC-3 prostate and in the test with SK-MEL-2 melanoma were 16.7 µM, 32.4 µM and 33.3 µM, respectively.

Turning to `CC(C)c1ccc2nc3ccc(C(=O)NCCN(C)C)cn3c(=O)c2c1`, the TGI amounted to 30.8 µM in the test with A498 renal; 31.7 µM with HCC-2998 colon; 9.46 µM in the test on K-562 leukemia; 33 µM with KM12 colon; 34.6 µM in the test with MDA-MB-231 breast; 37.1 µM with NCI-H226 lung. Moreover, the TGI in the test with NCI-H522 lung was found to be 29.3 µM; with OVCAR-5 ovarian it was 33.2 µM; in the test on PC-3 prostate, 30.6 µM.

Take `CN1C2CC(C#N)C1C=CC2=O` (stereo not given): the GI50 in the test with A498 renal is 17.5 µM and > 100 µM; in the test with HCC-2998 colon, 19.5 µM and > 100 µM; in the test on K-562 leukemia, 14 µM and 78.1 µM; with KM12 colon, 16.9 µM and 88.2 µM; with MDA-MB-231 breast, 19.7 µM and > 100 µM; in the test on NCI-H226 lung it was 24 µM and > 100 µM. The GI50 with OVCAR-5 ovarian was 19.6 µM and > 100 µM; in the test on PC-3 prostate, 26.3 µM and > 100 µM. Further, the TGI is 35 µM and > 100 µM in the test with A498 renal; 51.8 µM and > 100 µM with HCC-2998 colon; 90.2 µM and > 100 µM in the test on K-562 leukemia; 33.5 µM and > 100 µM with KM12 colon; 40.7 µM and > 100 µM in the test with MDA-MB-231 breast; 59.6 µM and > 100 µM in the test on NCI-H226 lung. The TGI with OVCAR-5 ovarian was 37.3 µM and > 100 µM; in the test with PC-3 prostate, 92.1 µM and > 100 µM; with SK-MEL-2 melanoma, 51.4 µM and > 100 µM.

On to `COc1ccc(-n2nnc3c(sc4ccccc43)c2=O)cc1`, for which the GI50 in the test on HCC-2998 colon, with K-562 leukemia, with KM12 colon, in the test with NCI-H522 lung, with PC-3 prostate and with SK-MEL-2 melanoma was above 100 µM throughout. The TGI in the test with HCC-2998 colon, in the test on K-562 leukemia, with KM12 colon, in the test on NCI-H522 lung, in the test with PC-3 prostate and in the test with SK-MEL-2 melanoma was above 100 µM each time.
